PMC11962395 (Molecular Cancer Therapeutics, 2024)
Blank lines part the entries; values can stand above or below the compound they belong to.

Key:
[1] = test system: patient-derived xenograft TM00298; settings: TM00298 model; cited from earlier work
PSA [2] = settings: TM00298 model; cited from earlier work
VCaP cells = assay: VCaP cell proliferation assay; format: cell-based, human; settings: for antiproliferative effect with increasing R1881: 300 nmol/L bavdegalutamide or 1,000 nmol/L enzalutamide, co-treatment with increasing R1881, 5 days
[3] = test system: human VCaP tumor xenografts; settings: intact VCaP xenograft model; cited from earlier work
TMPRSS–ERG = assay: ERG protein levels in tumors, enzalutamide-resistant VCaP model
[4] = Animal body weights during treatment in prostate cancer mouse models; format: in vivo, mice
[5] = test system: enzalutamide-resistant VCaP xenograft tumors; assay: Tumor growth inhibition, enzalutamide-resistant VCaP xenograft model; format: in vivo, mice; settings: 20 mg/kg oral every day for 28 days
PSA [6] = assay: Plasma PSA levels, patient-derived xenograft TM00298; format: in vivo, mice; settings: 10 mg/kg oral every day for 20 days, 16 hours after last dose
CK1α = CK1α (Homo sapiens, UniProt P48729+Q96SW2); assay: Neomorphic substrate degradation in Ramos cells: CK1α; format: cell-based
Sequence of CK1α (P48729 whole entry): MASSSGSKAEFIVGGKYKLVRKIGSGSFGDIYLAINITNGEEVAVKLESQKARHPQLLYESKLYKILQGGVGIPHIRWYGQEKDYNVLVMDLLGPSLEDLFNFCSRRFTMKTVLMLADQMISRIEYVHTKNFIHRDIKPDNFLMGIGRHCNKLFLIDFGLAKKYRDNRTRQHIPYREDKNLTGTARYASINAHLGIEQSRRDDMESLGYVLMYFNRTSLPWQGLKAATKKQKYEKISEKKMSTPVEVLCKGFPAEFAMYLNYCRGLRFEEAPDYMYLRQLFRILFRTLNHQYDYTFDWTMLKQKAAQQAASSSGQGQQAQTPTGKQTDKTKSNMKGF
Sequence of CK1α (Q96SW2 whole entry): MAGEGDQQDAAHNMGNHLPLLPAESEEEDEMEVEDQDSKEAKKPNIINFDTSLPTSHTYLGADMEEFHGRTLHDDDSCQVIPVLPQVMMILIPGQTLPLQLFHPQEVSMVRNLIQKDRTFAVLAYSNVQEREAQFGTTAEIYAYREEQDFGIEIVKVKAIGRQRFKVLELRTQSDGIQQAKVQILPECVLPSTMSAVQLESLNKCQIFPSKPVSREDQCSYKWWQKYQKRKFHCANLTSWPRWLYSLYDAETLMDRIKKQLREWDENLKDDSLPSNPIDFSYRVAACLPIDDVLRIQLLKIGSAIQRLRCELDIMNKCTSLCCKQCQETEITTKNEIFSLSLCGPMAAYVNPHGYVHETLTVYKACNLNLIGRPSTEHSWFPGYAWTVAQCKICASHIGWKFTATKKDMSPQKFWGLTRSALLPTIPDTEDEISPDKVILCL
Sequence of CK1α (Q16531 whole entry partner): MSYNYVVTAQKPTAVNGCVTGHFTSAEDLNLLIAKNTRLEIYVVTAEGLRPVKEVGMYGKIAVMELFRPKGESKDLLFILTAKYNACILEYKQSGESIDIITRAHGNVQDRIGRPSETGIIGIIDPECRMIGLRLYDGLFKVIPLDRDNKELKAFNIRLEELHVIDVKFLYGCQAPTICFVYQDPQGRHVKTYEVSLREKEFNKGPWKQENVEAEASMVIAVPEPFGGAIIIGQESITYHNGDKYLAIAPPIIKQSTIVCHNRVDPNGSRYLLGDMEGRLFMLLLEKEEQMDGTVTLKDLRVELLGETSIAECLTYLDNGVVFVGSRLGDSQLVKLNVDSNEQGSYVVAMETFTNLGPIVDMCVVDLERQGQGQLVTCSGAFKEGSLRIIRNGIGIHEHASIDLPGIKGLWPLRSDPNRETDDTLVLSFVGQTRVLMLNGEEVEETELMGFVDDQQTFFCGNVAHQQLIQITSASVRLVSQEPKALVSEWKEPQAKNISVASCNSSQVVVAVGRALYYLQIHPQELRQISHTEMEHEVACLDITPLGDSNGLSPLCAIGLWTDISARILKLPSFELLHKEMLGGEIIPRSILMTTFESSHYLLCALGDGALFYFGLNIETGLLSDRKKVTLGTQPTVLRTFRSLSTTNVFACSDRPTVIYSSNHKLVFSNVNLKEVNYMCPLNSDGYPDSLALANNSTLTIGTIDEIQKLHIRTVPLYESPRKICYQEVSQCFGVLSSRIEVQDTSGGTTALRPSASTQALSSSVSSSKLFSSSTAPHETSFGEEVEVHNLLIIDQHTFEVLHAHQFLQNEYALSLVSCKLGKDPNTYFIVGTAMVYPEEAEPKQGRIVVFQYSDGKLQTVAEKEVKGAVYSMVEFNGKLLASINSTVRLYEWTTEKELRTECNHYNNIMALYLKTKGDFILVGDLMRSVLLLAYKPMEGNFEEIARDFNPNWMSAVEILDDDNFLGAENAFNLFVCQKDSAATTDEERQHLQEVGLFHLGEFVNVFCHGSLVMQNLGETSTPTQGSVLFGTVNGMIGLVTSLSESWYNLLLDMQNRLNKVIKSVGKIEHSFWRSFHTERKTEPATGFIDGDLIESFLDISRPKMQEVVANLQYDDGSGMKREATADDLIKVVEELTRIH

IKZF1 (Ikaros) = IKZF1 (Ikaros) (Homo sapiens, UniProt Q13422); assay: Neomorphic substrate degradation in Ramos cells: IKZF1; format: cell-based; settings: increasing concentrations, 24 hours
Sequence of IKZF1 (Ikaros) (Q96SW2 whole entry partner): as the sequence (Q96SW2 whole entry) above
Sequence of IKZF1 (Ikaros) (Q16531 whole entry partner): as the sequence (Q16531 whole entry partner) above
Sequence of IKZF1 (Ikaros) (Q13422 whole entry): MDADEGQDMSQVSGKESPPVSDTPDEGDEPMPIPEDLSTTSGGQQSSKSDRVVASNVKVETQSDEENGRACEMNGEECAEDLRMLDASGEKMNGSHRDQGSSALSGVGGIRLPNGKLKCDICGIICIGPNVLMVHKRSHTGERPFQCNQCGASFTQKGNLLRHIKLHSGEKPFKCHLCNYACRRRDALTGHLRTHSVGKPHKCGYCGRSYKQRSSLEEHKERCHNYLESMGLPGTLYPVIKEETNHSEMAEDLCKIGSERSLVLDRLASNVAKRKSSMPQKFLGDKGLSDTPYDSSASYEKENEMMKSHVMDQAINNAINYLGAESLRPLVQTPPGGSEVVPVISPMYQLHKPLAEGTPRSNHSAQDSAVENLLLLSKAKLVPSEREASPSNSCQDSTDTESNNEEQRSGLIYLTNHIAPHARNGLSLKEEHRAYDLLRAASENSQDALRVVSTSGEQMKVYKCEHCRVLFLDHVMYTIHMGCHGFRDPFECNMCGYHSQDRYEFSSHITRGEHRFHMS

AR = AR degradation in CRBN-KO LNCaP and 22Rv1 cells with dox-inducible CRBN; format: cell-based
[7] = test system: PSA synthesis in LNCaP/AR cells; assay: PSA suppression assay in LNCaP/AR cells; format: cell-based; settings: 48 h, read-out: IC50 (inhibition of PSA synthesis)
[8] = test system: abiraterone-resistant tumors; settings: 10 mg/kg oral every day for 19 days, phase III
VCaP xenografts = assay: Tumor growth inhibition, castrated VCaP xenograft model; format: in vivo, mice
[9] = target: G1–S phase transition 1 protein (Homo sapiens, UniProt P15170); assay: Neomorphic substrate degradation in Ramos cells: GSPT1; format: cell-based; settings: increasing concentrations, 24 hours
Sequence of G1–S phase transition 1 protein (Q16531 whole entry): as the sequence (Q16531 whole entry partner) above
Sequence of G1–S phase transition 1 protein (Q96SW2 whole entry, further chain): as the sequence (Q96SW2 whole entry) above
Sequence of G1–S phase transition 1 protein (P15170 whole entry): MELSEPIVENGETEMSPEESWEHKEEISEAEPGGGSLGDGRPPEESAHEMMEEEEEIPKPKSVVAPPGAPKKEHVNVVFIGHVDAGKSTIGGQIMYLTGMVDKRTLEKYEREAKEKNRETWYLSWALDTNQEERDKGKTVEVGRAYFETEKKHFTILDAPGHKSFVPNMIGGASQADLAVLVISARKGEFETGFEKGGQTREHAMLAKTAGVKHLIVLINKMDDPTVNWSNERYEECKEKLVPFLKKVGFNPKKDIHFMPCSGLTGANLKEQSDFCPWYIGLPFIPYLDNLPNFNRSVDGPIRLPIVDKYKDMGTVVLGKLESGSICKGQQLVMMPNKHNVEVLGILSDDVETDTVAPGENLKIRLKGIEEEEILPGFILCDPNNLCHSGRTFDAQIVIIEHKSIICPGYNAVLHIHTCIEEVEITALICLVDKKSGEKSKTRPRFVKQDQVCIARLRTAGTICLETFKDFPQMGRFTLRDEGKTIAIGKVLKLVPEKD

rat prostate tissue = assay: Rat prostate involution study; format: in vivo, rats; settings: 15 and 45 mg/kg oral every day for 10 days
[10] = test system: nearly 4,000 detectable proteins in VCaP cells; assay: Proteomic screen in VCaP cells; format: cell-based, human; settings: 10 nmol/L, 8 hours, filter >2× degradation, P <0.05
SALL4 = SALL4 (Homo sapiens, UniProt Q96SW2+Q9UJQ4); assay: SALL4 degradation in SK-N-DZ cells; format: cell-based
Sequence of SALL4 (Q9UJQ4 whole entry): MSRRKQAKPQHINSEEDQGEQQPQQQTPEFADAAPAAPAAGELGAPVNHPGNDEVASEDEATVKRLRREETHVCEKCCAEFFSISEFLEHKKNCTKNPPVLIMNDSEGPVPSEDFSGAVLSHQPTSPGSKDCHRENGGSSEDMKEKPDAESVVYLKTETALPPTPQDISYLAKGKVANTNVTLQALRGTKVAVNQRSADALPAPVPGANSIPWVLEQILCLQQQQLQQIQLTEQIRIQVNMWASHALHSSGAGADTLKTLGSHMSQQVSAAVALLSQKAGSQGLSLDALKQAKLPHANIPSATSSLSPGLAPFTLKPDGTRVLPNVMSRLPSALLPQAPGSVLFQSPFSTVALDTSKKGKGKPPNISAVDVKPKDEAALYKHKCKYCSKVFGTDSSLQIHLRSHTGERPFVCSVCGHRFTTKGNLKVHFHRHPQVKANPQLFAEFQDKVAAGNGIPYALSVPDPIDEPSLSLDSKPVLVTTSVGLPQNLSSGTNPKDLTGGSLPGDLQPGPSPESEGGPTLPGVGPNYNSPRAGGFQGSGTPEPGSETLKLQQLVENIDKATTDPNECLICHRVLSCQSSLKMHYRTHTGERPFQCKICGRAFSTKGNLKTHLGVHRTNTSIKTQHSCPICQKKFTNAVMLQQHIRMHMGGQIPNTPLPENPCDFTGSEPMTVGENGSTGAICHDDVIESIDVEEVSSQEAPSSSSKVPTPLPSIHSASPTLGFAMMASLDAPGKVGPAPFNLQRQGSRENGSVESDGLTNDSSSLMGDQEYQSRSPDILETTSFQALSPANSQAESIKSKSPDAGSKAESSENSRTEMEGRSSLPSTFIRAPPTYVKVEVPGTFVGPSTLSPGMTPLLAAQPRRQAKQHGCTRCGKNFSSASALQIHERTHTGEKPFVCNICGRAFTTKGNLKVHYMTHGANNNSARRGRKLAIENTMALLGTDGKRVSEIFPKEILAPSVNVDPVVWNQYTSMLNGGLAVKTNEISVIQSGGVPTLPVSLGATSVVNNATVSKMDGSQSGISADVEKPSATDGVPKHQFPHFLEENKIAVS
Sequence of SALL4 (Q96SW2 whole entry): as the sequence (Q96SW2 whole entry) above
Sequence of SALL4 (Q16531 whole entry partner): as the sequence (Q16531 whole entry partner) above

IKZF3 (Aiolos) = IKZF3 (Aiolos) (Homo sapiens, UniProt Q9UKT9); assay: Neomorphic substrate degradation in Ramos cells: IKZF3; format: cell-based; settings: increasing concentrations, 24 hours
Sequence of IKZF3 (Aiolos) (Q96SW2 whole entry partner): as the sequence (Q96SW2 whole entry) above
Sequence of IKZF3 (Aiolos) (Q16531 whole entry partner): as the sequence (Q16531 whole entry partner) above
Sequence of IKZF3 (Aiolos) (Q9UKT9 whole entry): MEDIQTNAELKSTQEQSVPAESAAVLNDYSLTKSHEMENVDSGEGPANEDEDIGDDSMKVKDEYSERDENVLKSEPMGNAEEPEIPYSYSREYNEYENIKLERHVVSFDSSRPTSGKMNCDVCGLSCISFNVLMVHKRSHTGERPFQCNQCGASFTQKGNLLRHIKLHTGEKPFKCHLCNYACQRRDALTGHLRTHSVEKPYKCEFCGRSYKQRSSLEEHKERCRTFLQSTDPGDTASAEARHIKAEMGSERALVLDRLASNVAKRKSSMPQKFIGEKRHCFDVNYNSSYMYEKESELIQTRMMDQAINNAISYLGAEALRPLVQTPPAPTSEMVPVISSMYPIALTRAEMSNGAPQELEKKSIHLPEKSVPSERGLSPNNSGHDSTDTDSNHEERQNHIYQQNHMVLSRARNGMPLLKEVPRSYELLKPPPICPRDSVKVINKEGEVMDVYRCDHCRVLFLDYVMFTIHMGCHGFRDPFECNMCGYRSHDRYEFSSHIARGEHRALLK

[11] = enzalutamide-resistant VCaP model
[12] = vs in vitro functional efficacy of 1 to 30 nmol/L

reduction in AR target gene TMPRSS–ERG in tumors (TMPRSS–ERG; 20 mg/kg enzalutamide): this effect did not occur
Compound: CNC(=O)c1ccc(N2C(=S)N(c3ccc(C#N)c(C(F)(F)F)c3)C(=O)C2(C)C)cc1F [Enzalutamide, reference compound]
effect on tumor growth [1]: without affecting tumor growth
reduction of PSA levels (PSA [2]): approximately 50%
antiproliferative effect with increasing R1881 (VCaP cells; charcoal-stripped serum): antiproliferative only at R1881 concentrations <0.1 nmol/L
effect on tumor growth [3]: little to no effect on tumor growth
body weights ([4]; castrated VCaP xenograft model): Body weights were maintained
body weights [4, 11]: Body weights were maintained
TGI [5]: TGI was not observed

Compound: C[C@]1(O)CC[C@H]2[C@@H]3CCC4=CC(=O)CCC4=C3C=C[C@@]21C [R1881, reference compound]
effect of R1881 alone on proliferation (VCaP cells; VCaP cells, charcoal-stripped serum): increased the proliferation of VCaP cells

CK1α degradation (CK1α; Ramos cells, 300 to 1,000 nmol/L, 24 hours): only modest degradation
window between AR and CK1α modulation (CK1α; [12]): ≥ 10 ×
IKZF1 (Ikaros) degradation (IKZF1 (Ikaros)): did not lead to degradation
IC50 (VCaP cells; Homo sapiens, VCaP, 96 h, read-out: IC50 (inhibition of VCaP cell proliferation)): 0.02 µM
IC50 [7]: 0.01 µM
G1–S phase transition 1 protein degradation [9]: did not lead to degradation
SALL4 degradation (SALL4; SK-N-DZ cells, 1,000 nmol/L, 24 hours): modestly degraded
window between AR and SALL4 modulation (SALL4; [12]): ≥ 10 ×
reduction in AR target gene TMPRSS–ERG in tumors (TMPRSS–ERG; 3 or 10 mg/kg bavdegalutamide): Concomitant reductions
IKZF3 (Aiolos) degradation (IKZF3 (Aiolos)): did not lead to degradation
Compound: N#Cc1ccc(O[C@H]2CC[C@H](NC(=O)c3ccc(N4CCC(CN5CCN(c6cc7c(cc6F)C(=O)N(C6CCC(=O)NC6=O)C7=O)CC5)CC4)nn3)CC2)cc1Cl (some centres unmarked) [Bavdegalutamide, N-[(1r,4r)-4-(3-chloro-4-cyanophenoxy)cyclohexyl]-6-[4-({4-[2-(2,6-dioxopiperidin-3-yl)-6-fluoro-1,3-dioxo-2,3-dihydro-1H-isoindol-5-yl]piperazin-1-yl}methyl)piperidin-1-yl]pyridazine-3-carboxamide]
reduction of circulating PSA levels (PSA [6]): 93%
cereblon dependence of AR degradation (AR): cereblon dependent
antiproliferative effect with increasing R1881 (VCaP cells; charcoal-stripped serum): antiproliferative effects even in the presence of 1 nmol/L R1881
volume of abiraterone-resistant tumors [8]: reduced the volume of these abiraterone-resistant tumors
TGI (VCaP xenografts; 1 mg/kg oral): 101%
TGI (VCaP xenografts; 3 mg/kg oral): 109%
rat prostate involution vs enzalutamide 100 mg/kg (rat prostate tissue): significantly higher activity than enzalutamide
proteins degraded in proteomic screen [10]: degradation of only AR
body weights ([4]; castrated VCaP xenograft model): Body weights were maintained
body weights [4, 11]: Body weights were maintained
